Earlier results in patent US5792763A, “Serotonin 5-HT1F agonists” (Eli Lilly and Company, priority 1997, dated 1998).

How the values were obtained:
[1] = background section
[2] = tested on: cephalic vascular smooth muscle; conditions: background section
[3] = background section; remark: listed apart in the source
neurogenic inflammation = conditions: background section

CNS(=O)(=O)Cc1ccc2[nH]cc(CCN(C)C)c2c1 [sumatriptan]
crossing of the blood-brain barrier [1]: does not cross the blood-brain barrier | contraction of cephalic vascular smooth muscle [2]: contract cephalic vascular smooth muscle | effectiveness in the treatment of migraine [3]: effective in the treatment of migraine | blockade of neurogenic inflammation (neurogenic inflammation): blocked
